Measured values reported in PubChem BioAssay (NCI).
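Dose response: 5 concentrations. Exposure: 48 h. Format: 96-well plates. Endpoint: linear interpolation; highest concentration if not reached. TGI denotes the concentration required for complete inhibition of growth.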

Key:
Assay in all cases: DTP human tumour cell line panel, 48 h
HCT-116 colon = tested on: HCT-116 colon
SF-295 CNS = tested on: SF-295 CNS
COLO 205 colon = tested on: COLO 205 colon
U251 CNS = tested on: U251 CNS
A498 renal = tested on: A498 renal
ACHN renal = tested on: ACHN renal
OVCAR-3 ovarian = tested on: OVCAR-3 ovarian
SF-539 CNS = tested on: SF-539 CNS
A549 NSCLC = tested on: A549 NSCLC
M19-MEL melanoma = tested on: M19-MEL melanoma
KM12 colon = tested on: KM12 colon
OVCAR-4 ovarian = tested on: OVCAR-4 ovarian
SN12C renal = tested on: SN12C renal
NCI-H522 lung = tested on: NCI-H522 lung
UO-31 renal = tested on: UO-31 renal
SW-620 colon = tested on: SW-620 colon
NCI-H226 lung = tested on: NCI-H226 lung
MOLT-4 leukemia = tested on: MOLT-4 leukemia
EKVX NSCLC = tested on: EKVX NSCLC
SNB-75 CNS = tested on: SNB-75 CNS
M14 melanoma = tested on: M14 melanoma
LXFL 529 NSCLC = tested on: LXFL 529 NSCLC
XF 498 CNS = tested on: XF 498 CNS
IGROV1 ovarian = tested on: IGROV1 ovarian
DMS 114 small cell lung = tested on: DMS 114 small cell lung
RPMI-8226 leukemia = tested on: RPMI-8226 leukemia
NCI-H460 lung = tested on: NCI-H460 lung
OVCAR-5 ovarian = tested on: OVCAR-5 ovarian
SF-268 CNS = tested on: SF-268 CNS
KM20L2 colon = tested on: KM20L2 colon
TK-10 renal = tested on: TK-10 renal
786-0 renal = tested on: 786-0 renal
RXF 393 renal = tested on: RXF 393 renal
SNB-19 CNS = tested on: SNB-19 CNS
SNB-78 CNS = tested on: SNB-78 CNS
HCT-15 colon = tested on: HCT-15 colon
DMS 273 small cell lung = tested on: DMS 273 small cell lung
LOX IMVI melanoma = tested on: LOX IMVI melanoma
K-562 leukemia = tested on: K-562 leukemia
OVCAR-8 ovarian = tested on: OVCAR-8 ovarian
HL-60(TB) leukemia = tested on: HL-60(TB) leukemia
DLD-1 colon = tested on: DLD-1 colon
SK-MEL-2 melanoma = tested on: SK-MEL-2 melanoma
SK-MEL-28 melanoma = tested on: SK-MEL-28 melanoma
UACC-62 melanoma = tested on: UACC-62 melanoma
HOP-92 NSCLC = tested on: HOP-92 NSCLC
HOP-62 NSCLC = tested on: HOP-62 NSCLC
HT29 colon = tested on: HT29 colon
SK-MEL-5 melanoma = tested on: SK-MEL-5 melanoma
NCI-H23 lung = tested on: NCI-H23 lung
SK-OV-3 ovarian = tested on: SK-OV-3 ovarian
CCRF-CEM leukemia = tested on: CCRF-CEM leukemia

Measured: TGI

COc1ccc(C(=O)O)c(Br)c1OCc1ccccc1
> 100 µM: HCT-116 colon | SF-295 CNS | COLO 205 colon | U251 CNS | A498 renal | ACHN renal | OVCAR-3 ovarian | SF-539 CNS | A549 NSCLC | M19-MEL melanoma | KM12 colon | OVCAR-4 ovarian | SN12C renal | NCI-H522 lung | UO-31 renal | SW-620 colon | NCI-H226 lung | MOLT-4 leukemia | EKVX NSCLC | SNB-75 CNS | M14 melanoma | LXFL 529 NSCLC | XF 498 CNS | IGROV1 ovarian | DMS 114 small cell lung | RPMI-8226 leukemia | NCI-H460 lung | OVCAR-5 ovarian | SF-268 CNS | KM20L2 colon | TK-10 renal | 786-0 renal | RXF 393 renal | SNB-19 CNS | SNB-78 CNS | HCT-15 colon | DMS 273 small cell lung | LOX IMVI melanoma | K-562 leukemia | OVCAR-8 ovarian | HL-60(TB) leukemia | DLD-1 colon | SK-MEL-2 melanoma | SK-MEL-28 melanoma | UACC-62 melanoma | HOP-92 NSCLC | HOP-62 NSCLC | HT29 colon | SK-MEL-5 melanoma | NCI-H23 lung | SK-OV-3 ovarian | CCRF-CEM leukemia
